Measurements: patent US20240140933A1, “OXOINDOLINE COMPOUND FOR THE TREATMENT OF INFLAMMATORY DISEASES OR CANCER” (Hoffmann-La Roche Inc., priority 2021, published 2024)

Target: PDHK1 (Homo sapiens (Human), UniProt Q15118)
Assay: PDHK1 enzymatic assay (AlphaScreen, phosphorylation of PDHE1 S293)
Assay type: biochemical
Settings: 1 nM PDHK1, 25 nM PDHE1, 20 μM ATP, 30° C. for 45 minutes
From the text: Pyruvate dehydrogenase complex (PDHc) is an enzyme that catalyzes the reaction of pyruvate and a lipoamide to give the acetylated dihydrolipoamide and carbon dioxide. PDHc has three subunits E1, E2 and E3. E1 has 3 serine phosphorylation sites S293, S232, S300. If E1 was phosphorylated, PDH will be inactivated. PDHK can phosphorylate PDH protein (also named PDHE1) in PDH complex (PDC) to inactivate it.

PDHK1, sequence (Q15118 29-436): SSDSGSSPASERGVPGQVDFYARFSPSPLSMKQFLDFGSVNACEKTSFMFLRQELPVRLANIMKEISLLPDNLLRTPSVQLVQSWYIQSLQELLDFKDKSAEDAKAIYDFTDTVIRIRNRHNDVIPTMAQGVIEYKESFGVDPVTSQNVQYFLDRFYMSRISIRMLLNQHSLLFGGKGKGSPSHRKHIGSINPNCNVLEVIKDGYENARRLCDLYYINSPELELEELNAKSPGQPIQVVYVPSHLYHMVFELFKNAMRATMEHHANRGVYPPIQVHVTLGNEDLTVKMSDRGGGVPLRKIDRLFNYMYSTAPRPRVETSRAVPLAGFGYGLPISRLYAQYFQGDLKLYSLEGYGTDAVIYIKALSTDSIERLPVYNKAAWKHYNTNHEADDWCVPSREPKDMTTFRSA

CCNc1cc(F)cc2c1NC(=O)C2(C)N1CCC[C@@H](Nc2cccc(S(=O)(=O)F)c2)C1 (stereo partly drawn) [Example 27, 3-[[(3R)-1-[7-(ethylamino)-5-fluoro-3-methyl-2-oxo-indolin-3-yl]-3-piperidyl]amino]benzenesulfonyl fluoride]
Enzymatic IC50 against PDHK1: 0.086 µg/mL
